{"source": "paper PMC11748689", "about": "“Pharmacological and structural understanding of the Trypanosoma cruzi proteasome provides key insights for developing site-specific inhibitors” (The Journal of Biological Chemistry, 2024)", "format_in_all_cases": "biochemical", "key": {"[1]": {"target": "recombinant WT T. cruzi proteasome (caspase-like activity, β1) (Trypanosoma cruzi, UniProt V5BHX1)", "test": "Caspase-like activity assay (Proteasome-Glo), recombinant wild-type T. cruzi proteasome", "method": "(§1) Chymotrypsin-, trypsin-, and caspase-like activity assays were performed using a commercially available Proteasome-Glo 3-substrate system assay kit (catalog number G8532) (Promega Corporation) according to the manufacturers protocols and as previously described ([24]).\n(§2) Prior to running assays, Proteasome-Glo buffer was used to reconstitute the luciferin detection reagent (containing a recombinant thermostable luciferase enzyme). The resuspended luciferin detection reagent was then mixed with Proteasome-Glo chymotrypsin-, trypsin- or caspase-like substrates (either 40 μM suc-Leu-Leu-Val-Tyr-aminoluciferin, 30 μM Z-Leu-Arg-Arg-aminoluciferin (Z is benzyloxycarbonyl) or 40 μM Z-Nle-Pro-Nle-Asp-aminoluciferin respectively (these concentrations represent 2x final assay concentrations)). These substrate mixtures were allowed to incubate at room temperature for 60 min prior to use to allow the removal of any contaminating free aminoluciferin.\n(§3) When proteasome inhibitors were to be screened in the chymotrypsin, trypsin, and caspase assays, test compounds were dispensed into assay wells using an ECHO 550 acoustic dispenser (Labcyte) (final DMSO concentration 1%). Compounds were tested in either a 10-point concentration series (30 μM top final assay concentration, 1 in 3 dilution series) or a 12-point concentration series (30 μM top final assay concentration, 1 in 2.5 dilution series).\n(§4) Proteasome assays were then performed as described above using Promega Proteasome-Glo 3-substrate system assay kit. […] Diluted proteasome (4 μl) was added to assay plates using an electronic multichannel pipette (Integra Biosciences Ltd) and the proteasome incubated with compound for 60 min at room temperature.\n(§5) Following the 60 min incubation of proteasome and compounds, assays were initiated with the addition of 4 μl of a substrate mix (containing substrate and the luciferin detection reagent) using an electronic multichannel pipette. Final assay concentrations of substrates used were either 20 μM Suc-Leu-Leu-Val-Tyr-aminoluciferin, 15 μM Z-Leu-Arg-Arg-aminoluciferin, or 20 μM Z-Nle-Pro-Nle-Asp-aminoluciferin for chymotrypsin-, trypsin-, or caspase-like activity, respectively. Following a further 60 min assay incubation, luminescence was read using an EnVision 2102 Multilabel Reader (PerkinElmer, Inc) with 0.2 s per well reading time.\n(§6) All data processing was performed using Microsoft Excel for Microsoft 365 software.\n(§7) Nonlinear dose-response curve fitting was carried out using the Microsoft Excel add-in, XLfit (IDBS). Percentage inhibition data were either fitted to a standard 4-parameter logistic fit model (XLfit model 205; Equation 2) or a biphasic model (either XLfit model 300; Equation 3 or a custom biphasic model; Equation 4 (used in cases where the top and/or bottom parameters deviated from 100%/0% inhibition)).(2) y=A+(B−A)/1+(C/x)^D Where A = % inhibition at bottom, B = % inhibition at top, C = IC50, D = slope, x = inhibitor concentration and y = % inhibition.(3) y=(A/(1+10^(C−log(x))∗B))+((100−A)/(1+10^(D−log(x))∗B)) With A = % inhibition at midplateau, B = slope, C = log(IC50^A), D = log(IC50^B)).\n(§8) All IC50 data generated were converted to pIC50 using Equation 5."}, "[2]": {"target": "recombinant WT T. cruzi proteasome (chymotrypsin-like activity, β5) (Trypanosoma cruzi, UniProt V5BU39+V5C017)", "sequence (V5BGL9 entry or part of it)": "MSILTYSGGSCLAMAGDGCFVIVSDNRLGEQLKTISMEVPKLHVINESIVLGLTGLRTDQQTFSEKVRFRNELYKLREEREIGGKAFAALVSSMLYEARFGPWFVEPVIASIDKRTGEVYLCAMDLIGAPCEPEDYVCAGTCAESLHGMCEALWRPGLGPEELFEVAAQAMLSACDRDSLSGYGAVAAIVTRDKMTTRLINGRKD", "sequence (V5BU39 entry or part of it)": "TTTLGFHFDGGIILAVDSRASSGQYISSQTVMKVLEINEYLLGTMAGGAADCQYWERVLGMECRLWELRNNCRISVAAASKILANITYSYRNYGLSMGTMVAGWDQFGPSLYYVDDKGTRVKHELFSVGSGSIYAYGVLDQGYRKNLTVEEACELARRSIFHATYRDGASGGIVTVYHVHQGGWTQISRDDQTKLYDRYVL", "sequence (V5C017 entry or part of it)": "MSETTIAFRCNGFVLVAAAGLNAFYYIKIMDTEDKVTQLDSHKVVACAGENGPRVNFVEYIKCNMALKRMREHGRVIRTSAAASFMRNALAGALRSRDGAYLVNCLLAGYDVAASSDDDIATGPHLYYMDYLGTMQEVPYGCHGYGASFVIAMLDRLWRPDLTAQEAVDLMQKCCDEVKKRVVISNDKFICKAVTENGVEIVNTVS", "test": "biochemical", "conditions": "for maximum % inhibition plateau, Chymotrypsin Assay, Wild-type: mean ± SD, N = 3 (N = 2 for DDD02091966), (a) mid-point plateau from biphasic curve fits", "method": "as §1, §2\n(§9) Proteasome assays were carried out using 384-well, white, low-volume plates (catalog number 784904) (Greiner Bio-One) at room temperature (∼23 °C) in 8 μl reaction volumes. When activity checks were to be run in the presence or absence of a fixed concentration of proteasome inhibitor, 80 nL of the inhibitor (at a concentration 100x the required final assay concentration), or 80 nL dimethylsulfoxide (DMSO), were dispensed into assay plates using an Echo 550 acoustic dispenser (Labcyte).\n(§10) A 1 in 2 dilution series of the various T. cruzi proteasome samples (native, recombinant WT, β4^R mutant, and Δβ1Δβ2 mutant) were produced in assay buffer (50 mM Tris–HCl, pH 7.5, 10 mM sucrose, 5 mM MgCl2, 1 mM DTT, 2 mM ATP, 150 mM NaCl, 1 mM EDTA, and 0.05 mg/ml bovine serum albumin). Subsequently, 4 μl of the various concentrations of diluted proteasome were added to assay plates using an electronic multichannel pipette (Integra Biosciences Ltd). When kinetic read activity checks were performed (Fig. 2), proteasome final assay concentrations used were 115 μg/ml, 115 μg/ml, and 230 μg/ml native proteasome (in the chymotrypsin, trypsin, and caspase assays, respectively), and 4.1 μg/ml, 3.4 μg/ml, or 1.4 μg/ml recombinant WT proteasome (in the chymotrypsin, trypsin, and caspase assays, respectively). When activity checks were to be run in the presence or absence of a proteasome inhibitor plates containing inhibitor or DMSO control were incubated with the relevant proteasome sample for 60 min at room temperature (this step was not included in activity check experiments where compounds were not used).\n(§11) Following the 60 min incubation of proteasome and compound (if required), assays were initiated with the addition of 4 μl of substrate mix (containing substrate and the luciferin detection reagent) using an electronic multichannel pipette. Final assay concentrations of substrates used were either 20 μM Suc-Leu-Leu-Val-Tyr-aminoluciferin, 15 μM Z-Leu-Arg-Arg-aminoluciferin, or 20 μM Z-Nle-Pro-Nle-Asp-aminoluciferin for chymotrypsin-, trypsin- or caspase-like activity respectively.\n(§12) Luminescence was read either kinetically or as an endpoint read using an EnVision 2102 Multilabel Reader (PerkinElmer, Inc) with 0.2 s per well reading time. When kinetic assays were run, luminescence was read every 5 min for 90 min. Endpoint assays were run for 60 min before luminescence was read. All data processing and linear fit analyses were performed using Microsoft Excel for Microsoft 365 software (Redmond, Washington; https://www.microsoft.com/).\nas §3"}, "[3]": {"target": "recombinant β4^R mutant T. cruzi proteasome (trypsin-like activity) (Trypanosoma cruzi, UniProt V5BCU3)", "conditions": "for pIC50, Trypsin Assay, β4^R mutant: mean ± SD, N = 3", "method": "(§13) Point mutations were created in individual subunits using overlapping PCR from the original templates using Polh and Tn7L primers outside the genes and suitable internal primers to introduce selected mutations. For Δβ1Δβ2, β1 Thr 55, and β2 Thr 67 were both mutated to Ala, the β4^R mutant was produced by mutating Phe 24 and Ile 29 to Leu and Met respectively in β4 subunit.\nas §1, §2, §9, §10, §11, §12"}, "[4]": {"target": "recombinant WT T. cruzi proteasome (trypsin-like activity, β2) (Trypanosoma cruzi, UniProt V5BCU3)", "test": "biochemical", "conditions": "for IC50: mean ± SD, N = 3, read-out: pIC50, Trypsin Assay, Wild-type (converted)", "method": "as §1, §2, §3, §4, §5, §6, §7, §8"}, "[5]": {"target": "recombinant β4^R mutant T. cruzi proteasome (caspase-like activity) (Trypanosoma cruzi, UniProt V5BHX1)", "test": "Caspase-like activity assay (Proteasome-Glo), recombinant β4^R mutant T. cruzi proteasome", "method": "as §13, §1, §2, §9, §10, §11, §12"}, "[6]": {"target": "native T. cruzi proteasome (trypsin-like activity, β2) (Trypanosoma cruzi, UniProt V5BCU3)", "test": "Trypsin-like activity assay (Proteasome-Glo), native T. cruzi proteasome", "conditions": "mean ± SD, N = 3; read-out: pIC50, Trypsin Assay, Native (converted)", "method": "as §1, §2, §3, §4, §5, §6, §7, §8"}, "[7]": {"conditions": "native and recombinant T. cruzi proteasomes"}}}
{"molecule": "O=C(Nc1ccc(F)c(-c2cn3nc(-c4ccccc4)cnc3n2)c1)N1CCCC1", "note": "[DDD01012248]", "values": [{"measurement": "IC50", "setting": "[1]", "value": "> 30.2", "unit": "µM"}, {"measurement": "IC50", "setting": "[2]", "value": 52.5, "unit": "nM"}, {"measurement": "inhibition of chymotrypsin activity, recombinant WT proteasome, fixed concentration", "setting": "[2]; 1 μM compound, endpoint activity vs proteasome concentration (Fig. 7A)", "value": "partial inhibition"}, {"measurement": "maximum % inhibition plateau, Chymotrypsin Assay, Wild-type", "setting": "[2]", "value": "67.7 ± 4.0", "unit": "%"}, {"measurement": "inhibition of trypsin activity, β4^R mutant, fixed concentration", "setting": "[3]; 1 μM compound (Fig. S4)", "value": "did not inhibit"}, {"measurement": "pIC50, Trypsin Assay, β4^R mutant", "setting": "[3]", "value": "<4.52"}, {"measurement": "IC50", "setting": "[4]", "value": "> 30.2", "unit": "µM"}, {"measurement": "IC50", "setting": "[5]", "value": "> 30.2", "unit": "µM"}, {"measurement": "inhibition of caspase activity, β4^R mutant, fixed concentration", "setting": "[5]; 1 μM compound (Fig. S4)", "value": "did not inhibit"}, {"measurement": "IC50", "setting": "[6]", "value": "> 30.2", "unit": "µM"}]}
{"molecule": "O=C(Nc1ccc(F)c(C(=O)NC2CC2)c1)c1ccc(COc2ccccc2)o1", "note": "[DDD02091966, N-(3-(cyclopropylcarbamoyl)-4-fluorophenyl)-5-(phenoxymethyl)furan-2-carboxamide]", "values": [{"measurement": "IC50", "setting": "[1]", "value": "> 30.2", "unit": "µM"}, {"measurement": "inhibition of the caspase activity", "setting": "[1]; [7]", "value": "no inhibition"}, {"measurement": "IC50", "setting": "[2]", "value": 34.7, "unit": "nM"}, {"measurement": "maximum % inhibition plateau, Chymotrypsin Assay, Wild-type", "setting": "[2]", "value": "51.6 ± 1.8", "unit": "%"}, {"measurement": "pIC50, Trypsin Assay, β4^R mutant", "setting": "[3]", "value": "<4.52"}, {"measurement": "IC50", "setting": "[4]", "value": "> 30.2", "unit": "µM"}, {"measurement": "inhibition of the trypsin activity", "setting": "[4]; [7]", "value": "no inhibition"}, {"measurement": "IC50", "setting": "[5]", "value": "> 30.2", "unit": "µM"}, {"measurement": "IC50", "setting": "[6]", "value": "> 30.2", "unit": "µM"}]}
